# Measurements taken from patent US8222417B2, “Compound having 11β-HSD1 inhibitory activity” (Taisho Pharmaceutical Co., Ltd, priority 2007, dated 2012).
# Counter-ions that a name gives are not always drawn.
# Target: T1, 11β-HSD1 (Homo sapiens, UniProt P28845)
# T1 construct: human liver microsome (enzyme source, Tissue Transformation Technologies); tissue Tissue Transformation Technologies; host or cells: human liver microsomes
# Experiment: 11β-HSD1 inhibition test (human liver microsome, HTRF cortisol detection)
# Format: biochemical
# Conditions: human liver microsome as enzyme source; cortisone 100 nM; 20° C., 80 minutes; generated cortisol quantified by HTRF
# Method: Test Example [11β-HSD1 Inhibition Test]
# Test Compounds were Evaluated as Follows.
# 11β-HSD1 enzyme reaction was performed in a reaction solution of 100 μl total volume using 96-well polypropylene microplates. The reaction solution was prepared in 30 mM Tris-HCl (pH 7.4)/1 mM EDTA buffer to contain NADPH at a final concentration of 100 μM, G6P at a final concentration of 1 mM, human liver microsome (enzyme source, Tissue Transformation Technologies) at a final concentration of 0.8 μg/ml and 10 μl of a test compound dissolved in DMSO. The enzyme reaction was initiated by addition of cortisone at a final concentration of 100 nM. After incubation at 20° C. for 80 minutes, 10 μl of 1 mM 18β glycyrrhetinic acid, which is a non-specific inhibitor, was added to stop the reaction. Next, the amount of generated cortisol was quantified with a detection kit (Sceti Medical Labo K.K., Japan) according to the HTRF (Homogeneous Time-Resolved Fluorescence) method. This system detects fluorescence resonance energy transfer between europium-labeled anti-cortisol antibody and XL665-labeled cortisol. Upon addition of unlabeled cortisol, binding signals will be attenuated due to competitive reaction. Based on this principle, the amount of cortisol generated by the enzyme reaction was evaluated using a standard curve obtained from samples with known concentrations of cortisol included in the kit. The HTRF reaction was performed in 96-well half area microplates as follows: to 30 μl enzyme reaction solution, an anti-cortisol antibody solution (15 μl) and an XL665-labeled cortisol solution (15 μl) included in the kit were added, and the plates were vortexed at room temperature for 1 hour and further allowed to stand at 20° C. for 1 hour. 40 μl of this reaction solution was transferred to 384-well microplates and measured for its fluorescence. 18β Glycyrrhetinic acid was added to wells before initiation of the enzyme reaction and the amount of cortisol generated in these wells was used as a background level. Test compounds were evaluated using serial dilutions at a common ratio of 3 to calculate their IC50 values, assuming that the amount of cortisol generated in wells containing no test compound was set to 100% enzyme activity.
# T1 sequence (P28845 whole entry): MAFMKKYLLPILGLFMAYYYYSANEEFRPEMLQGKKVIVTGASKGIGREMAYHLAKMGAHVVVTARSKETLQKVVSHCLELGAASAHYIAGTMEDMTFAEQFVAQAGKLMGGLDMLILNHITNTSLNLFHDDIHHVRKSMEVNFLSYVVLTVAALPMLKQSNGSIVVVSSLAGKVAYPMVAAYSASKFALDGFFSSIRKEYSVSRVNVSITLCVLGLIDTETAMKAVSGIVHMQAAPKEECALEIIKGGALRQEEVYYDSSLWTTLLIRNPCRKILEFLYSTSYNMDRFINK
row,SMILES,IC50
1,"O=C(N[C@H]1C2CC3CC1C[C@](O)(C3)C2)N1CCOc2ccccc21 [Compound 16, N-(E-1-hydroxyadamantan-4-yl)-2,3-dihydro-4H-1,4-benzoxazine 4-carboxamide]",1.5 nM
2,"Cc1ccc2c(c1)N(C(=O)N[C@H]1C3CC4CC1C[C@](C(N)=O)(C4)C3)CCO2 [Compound 39, N-(E-5-carbamoyladamantan-2-yl)-6-methyl-2,3-dihydro-4H-1,4-benzoxazine-4-carboxamide]",0.6 nM
3,"O=C(N[C@H]1C2CC3CC1C[C@](O)(C3)C2)N1CCNc2ccccc21 [Compound 32, N-(E-5-hydroxyadamantan-2-yl)-3,4-dihydroquinoxaline-1(2H)-carboxamide hydrochloride]",1.4 nM
4,"O=C(N[C@H]1C2CC3CC1C[C@](O)(C3)C2)N1CCCCc2ccccc21 [Compound 13, N-(E-1-hydroxyadamantan-4-yl)-2,3,4,5-tetrahydro-1H-1-benzoazepine-1-carboxamide]",1.2 nM
5,"Cc1ccc2c(c1)N(C(=O)N[C@H]1C3CC4CC1C[C@](O)(C4)C3)CCO2 [Compound 17, N-(E-1-hydroxyadamantan-4-yl)-6-methyl-2,3-dihydro-4H-1,4-benzoxazine 4-carboxamide]",0.8 nM
6,"Cc1cccc2c1N(C(=O)N[C@H]1C3CC4CC1C[C@](O)(C4)C3)CCO2 [Compound 25, N-(E-5-hydroxyadamantan-2-yl)-5-methyl-2,3-dihydro-4H-1,4-benzoxazine-4-carboxamide]",1.1 nM
7,"COc1ccc2c(c1)N(C(=O)N[C@H]1C3CC4CC1C[C@](O)(C4)C3)CCC2 [Compound 5, N-(E-1-hydroxyadamantan-4-yl)-7-methoxy-3,4-dihydroquinoline-1(2H)-carboxamide]",1.2 nM
8,"CO[C@]12CC3CC(C1)[C@@H](NC(=O)N1CCCc4ccccc41)C(C3)C2 [Compound 8, N-(E-1-methoxyadamantan-4-yl)-3,4-dihydroquinoline-1(2H)-carboxamide]",0.9 nM
9,"Cc1ccc2c(c1)N(C(=O)OC1C3CC4CC1CC(O)(C4)C3)CCO2 (stereo not drawn) [Compound 43b, E-5-hydroxyadamantan-2-yl 6-methyl-2,3-dihydro-4H-1,4-benzoxazine-4-carboxylate]",3.2 nM
10,"O=C(N[C@H]1C2CC3CC1C[C@](O)(C3)C2)N1CCCc2cc(Cl)ccc21 [Compound A-2, 6-chloro-N-[E-1-hydroxyadamantan-4-yl]-3,4-dihydroquinoline-1(2H)-carboxamide]",0.9 nM
11,"O=C(N[C@H]1C2CC3CC1C[C@](O)(C3)C2)N1CCCc2ccc(F)cc21 [Compound 3, 7-fluoro-N-(E-1-hydroxyadamantan-4-yl)-3,4-dihydroquinoline-1(2H)-carboxamide]",1 nM
12,"CC1(C)CCN(C(=O)N[C@H]2C3CC4CC2C[C@](O)(C4)C3)c2ccccc21 [Compound 14, N-(E-1-hydroxyadamantan-4-yl)-4,4-dimethyl-3,4-dihydroquinoline-1(2H)-carboxamide]",2 nM
13,"O=C(N[C@H]1C2CC3CC1C[C@](O)(C3)C2)N1CCCc2cccc(F)c21 [Compound 4, 8-fluoro-N-(E-1-hydroxyadamantan-4-yl)-3,4-dihydroquinoline-1(2H)-carboxamide]",1.1 nM
14,"CN(C(=O)N1CCCc2ccccc21)[C@H]1C2CC3CC1C[C@](O)(C3)C2 [Compound A-7, N-[E-1-hydroxyadamantan-4-Y^1]-N-methyl-3,4-dihydroquinoline-1(2H)-carboxamide]",9.6 nM
15,"CN1CCN(C(=O)N[C@H]2C3CC4CC2C[C@](O)(C4)C3)c2ccccc21 [Compound 33, N-(E-5-hydroxyadamantan-2-yl)-4-methyl-3,4-dihydroquinoxaline-1(2H)-carboxamide hydrochloride]",1.4 nM
16,"O=C(N[C@H]1C2CC3CC1C[C@](O)(C3)C2)N1CCOc2ccc(C(F)(F)F)cc21 [Compound 26, N-(E-5-hydroxyadamantan-2-yl)-6-(trifluoromethyl)-2,3-dihydro-4H-1,4-benzoxazine-4-carboxamide]",3.4 nM
17,"O=C(NC1C2CC3CC(C2)CC1C3)N1CCCc2ccccc21 (stereo not drawn) [Compound A-5, N-adamantan-2-yl-3,4-dihydroquinoline-1(2H)-carboxamide]",1.5 nM
18,"NC(=O)[C@]12CC3CC(C1)[C@@H](NC(=O)N1CCOc4ccc(F)cc41)C(C3)C2 [Compound 38, N-(E-5-carbamoyladamantan-2-yl)-6-fluoro-2,3-dihydro-4H-1,4-benzoxazine-4-carboxamide]",0.6 nM
19,"CS(=O)(=O)[C@]12CC3CC(C1)[C@@H](NC(=O)N1CCOc4ccccc41)C(C3)C2 [Compound 41, N-(E-1-methylsulfonyladamantan-4-yl)-2,3-dihydro-4H-1,4-benzoxazine-4-carboxamide]",34.7 nM
20,"O=C(N[C@H]1C2CC3CC1C[C@](O)(C3)C2)N1CCOc2cc(F)ccc21 [Compound 24, 7-fluoro-N-(E-5-hydroxyadamantan-2-yl)-2,3-dihydro-4H-1,4-benzoxazine-4-carboxamide]",1.1 nM
21,"Cc1ccc2c(c1)OCCN2C(=O)N[C@H]1C2CC3CC1C[C@](O)(C3)C2 [Compound 23, N-(E-5-hydroxyadamantan-2-yl)-7-methyl-2,3-dihydro-4H-1,4-benzoxazine-4-carboxamide]",1.1 nM
22,"O=C(NC1C2CC3CC(C2)CC1C3)N1CCOc2ccccc21 (stereo not drawn) [Compound 34, N-adamantan-2-yl-2,3-dihydro-4H-1,4-benzoxazine-4-carboxamide]",1.1 nM
23,"O=C(N[C@H]1C2CC3CC1C[C@](O)(C3)C2)N1CCCc2cc(F)ccc21 [Compound 2, 6-fluoro-N-(E-1-hydroxyadamantan-4-yl)-3,4-dihydroquinoline-1(2H)-carboxamide]",0.9 nM
24,"O=C(OC1C2CC3CC1CC(O)(C3)C2)N1CCOc2ccc(F)cc21 (stereo not drawn) [Compound 44b, E-5-hydroxyadamantan-2-yl 6-fluoro-2,3-dihydro-4H-1,4-benzoxazine-4-carboxylate]",9.5 nM
25,"O=C(OC1C2CC3CC1CC(O)(C3)C2)N1CCCc2ccccc21 (stereo not drawn) [Compound 18b, E-5-hydroxyadamantan-2-yl 3,4-dihydroquinoline-1(2H)-carboxylate]",0.9 nM
26,"O=C(NC1C2CC3CC1CC(C(=O)O)(C3)C2)N1CCCc2ccccc21 (stereo not drawn) [Compound 10b, E-4-[(3,4-dihydroquinolin-1(2H)-ylcarbonyl)amino]adamantane-1-carboxylic acid]",17.5 nM
27,"N#Cc1ccc2c(c1)CCCN2C(=O)N[C@H]1C2CC3CC1C[C@](O)(C3)C2 [Compound 7, 6-cyano-N-(E-1-hydroxyadamantan-4-yl)-3,4-dihydroquinoline-1(2H)-carboxamide]",2.8 nM
28,"O=C(N[C@H]1C2CC3CC1C[C@](O)(C3)C2)N1CCc2ccccc21 [Compound A-6, N—[E-1-hydroxyadamantan-4-yl]-2,3-dihydro-1H-indole-1-carboxamide]",8.3 nM
29,"O=C(N[C@H]1C2CC3CC1C[C@](O)(C3)C2)N1CCCc2c(F)cccc21 [Compound 1, 5-fluoro-N-(E-1-hydroxyadamantan-4-yl)-3,4-dihydroquinoline-1(2H)-carboxamide]",1 nM
30,"NC(=O)C12CC3CC(C1)C(NC(=O)N1CCCc4ccccc41)C(C3)C2 (stereo not drawn) [Compound 11b, N-(E-5-carbamoyladamantan-2-yl)-3,4-dihydroquinoline-1(2H)-carboxamide]",0.8 nM
